How the values were obtained:
[1] = biological target: 5-HT2B receptor (Homo sapiens, UniProt P41595); details: cited literature: Br. J. Pharmacol. 128(1):13-20, 1999; J. Pharmacol. Exp. Ther. 347(3):645-59, 2013; cited from earlier work
[2] = tested on: muscle-damaged model animal (CTX administered to tibialis anterior muscle); assay: Muscle regeneration in cardiotoxin (CTX) muscle-damaged model animal; area of regenerated single muscle fibers with central nuclei in tibialis anterior muscle; format: in vivo, C57BL/6 male mice; details: 10 μL intramuscular into tibialis anterior muscle once a day from day before CTX to 6 day after CTX; for increase in the mean muscle fiber area of regenerated muscle as compared with the Vehicle administration group: 7 days after CTX, P<0.0001; for histogram of the regenerated single-muscle fiber area vs Vehicle administration group: muscle collected 7 days after CTX
Method: Seven-week old C57BL/6 male mice (CLEA Japan, Inc.) were purchased, and used for experiment at the age of 8 weeks.
A model animal to which muscle damage had been caused by administration of snake venom cardiotoxin (CTX) was used. The muscle-damaged model animal has been widely used in studies on the regeneration from muscle damage.
Under the anesthesia with isoflurane, 50 μL of 10 μM CTX was administered to the tibialis anterior muscle of the right hindlimb of the mouse. After 7 days of the administration of CTX, the tibialis anterior muscle was collected by dissection, and supplied to the preparation of a muscle tissue section.
Immediately after the collection of the tibialis anterior muscle, the tibialis anterior muscle was immersed in isopentane cooled with liquid nitrogen and was rapidly frozen. The frozen muscle tissue was cut into slices each having a thickness of 10 μm by using a cryostat (Leica Biosystems), and the slice was attached onto an antistripping coated slide glass (Matsunami Glass Ind., Ltd).
A muscle tissue section was sufficiently air dried for 30 minutes under room temperature. After that, the muscle tissue section was fixed by immersing it in acetone cooled to −30° C. and treating at −30° C. for 20 minutes. The fixed section was air dried once and washed with PBS. Then the section was blocked by dropwisely adding a blocking reagent (Blocking One, NACALAI TESQUE, INC.) to the section and being subjected to the blocking treatment for 1 hour. Next, a primary antibody (Anti-Laminin-2 (α-2 Chain) antibody, Rat monoclonal (Sigma-Aldrich)) obtained by being diluted 500 times with the blocking reagent was added dropwise, and the reaction was conducted at overnight at 4° C. Since laminin to which a primary antibody binds is a protein expressed in all muscle cells, the primary antibody was used in this experiment in order to measure the area of individual muscle cells in a section. The muscle tissue section after the reaction with the primary antibody was washed with PBS, and then was reacted for 1 hour with a secondary antibody (CF 488A Goat Anti-Rat IgG (H+L) (Biotium)) obtained by being diluted 500 times with the blocking reagent. The secondary antibody that is an anti-rat antibody conjugated with a fluorescent dye binds to the primary antibody, and stains the laminin. The muscle tissue section after the reaction with the secondary antibody was washed with PBS, and sealed by using “[…] Hard⋅Set with DAPI” (Vector), and then the fluorescence observation was performed with an inverted microscope FSX100 (OLYMPUS). The “[…] Hard⋅Set with DAPI” was used for staining the central nucleus of muscle cells.
The muscle regeneration was evaluated on the basis of the image data taken from the fluorescence observation. In this experiment, muscle cells each having a central nucleus (single muscle fibers having central nuclei) were used as an indicator for regenerated muscle. After the image data was taken into image analysis software ImageJ (NIH), a muscle cell having a central nucleus was extracted. The cross-sectional area of the extracted individual cells was measured on the basis of the cell membrane stained with laminin. For the area measurement, “Analyze Particles” that is an add-in analysis program on ImageJ was used. The measurement results were shown as a distribution chart (histogram) of the area and number of regenerated single-muscle fibers, and as an average value of the cross-sectional areas of all the regenerated single muscle fibers (mean muscle fiber area).

[3] = 5 mM in PBS with 5% dimethyl sulfoxide

Sequence of 5-HT2B receptor (P41595 whole entry): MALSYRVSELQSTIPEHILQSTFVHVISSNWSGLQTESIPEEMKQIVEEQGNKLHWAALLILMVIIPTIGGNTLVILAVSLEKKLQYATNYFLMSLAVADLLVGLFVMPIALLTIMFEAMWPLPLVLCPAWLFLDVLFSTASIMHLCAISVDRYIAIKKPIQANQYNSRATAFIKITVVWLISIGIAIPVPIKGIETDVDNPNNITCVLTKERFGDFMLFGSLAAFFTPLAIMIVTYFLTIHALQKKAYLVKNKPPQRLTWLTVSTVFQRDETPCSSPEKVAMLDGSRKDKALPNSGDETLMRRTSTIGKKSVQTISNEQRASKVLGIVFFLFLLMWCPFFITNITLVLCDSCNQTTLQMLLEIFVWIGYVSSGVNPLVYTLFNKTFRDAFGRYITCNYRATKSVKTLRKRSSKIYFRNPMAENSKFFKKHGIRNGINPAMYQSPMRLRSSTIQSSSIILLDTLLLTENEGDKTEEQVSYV

Row | Compound | 5-HT2B receptor agonist activity (known from literature) [1] | increase in the mean muscle fiber area of regenerated muscle as compared with the Vehicle administration group [2, 3] [%] | histogram of the regenerated single-muscle fiber area vs Vehicle administration group [2, 3] | increase in the mean muscle fiber area of regenerated muscle as compared with the Vehicle administration group ([2]; 10 mM in PBS) [%] | histogram of the regenerated single-muscle fiber area vs Vehicle administration group ([2]; 10 mM in PBS)
1 | CC(N)Cc1c[nH]c2ccc(OCc3cccs3)cc12 (stereo not drawn) [BW723C86, 1-(5-(thiophen-2-ylmethoxy)-1H-indol-3-yl)propan-2-amine] | selective 5-HT2B receptor agonist | 9.5 | shifted to the right side | – | –
2 | Cn1c2c(c3ccccc31)CCNCC2 [PNU 22394, 6-methyl-1,2,3,4,5,6-hexahydroazepino[4,5-b]indole] | 5-HT2B receptor agonist | – | – | 8.5 | shifted to the right side
3 | CC(N)Cc1c[nH]c2ccc(O)cc12 (stereo not drawn) [α-methyl-5-HT, 3-(2-aminopropyl)-1H-indol-5-ol] | 5-HT2B receptor agonist | 23 | shifted to the right side | – | –

Reference: patent US20220249440A1, “MUSCLE RE[…]” (SATO PHARMACEUTICAL CO., LTD., priority 2019, published 2022)
